The results in this text go back to patent US4521598A, “3-Azidocephalosporins” (priority 1983, dated 1985).

The structures appear in SMILES notation. ≈ marks a conversion by molar mass, not a printed value. Structures can show the parent of a compound that is named as a salt. Where two headings read alike, the source gives them in different places.

The subject of experiment [1] is Candida albicans. Put plainly: Disc plate assay, zone of inhibition. It is filed as cell-based. The procedure:
(§1) The 7-acylamino-3-azido-3-cephem-4-carboxylic acids and the salts thereof inhibit the growth of bacteria pathogenic to man and animals. […] For example, 7β-(2-thienylacetamido)-3-azido-3-cephem-4-carboxylic acid inhibited the growth of various organisms as shown in the following Table 1.
(§2) ^1 concentration 1 mg./ml.
(§3) The 3-amino-2-substituted-3-cephem compounds (formula 5) as the free acids or salts thereof and the bicyclo nonenes (formula 6) as the free acids or salts thereof are antibacterial agents which inhibit the growth of bacteria pathogenic to man and animals. In Table 3 below the in vitro antibacterial properties of the three isomeric products represented by formulae 5 and 6 obtained in the disc-plate method is tabulated.

For experiment [2], the system named is Escherichia coli. Put plainly: Disc plate assay, zone of inhibition. Type of experiment: cell-based. Conditions: for zone of inhibition at 3000 µg/mL: read-out: Zone of Inhibition (mm. diam.).
Experiment [3] relates to Micrococcus luteus. Put plainly: Disc plate assay, zone of inhibition. It is filed as cell-based. To be noted: for zone of inhibition at 3000 µg/mL: read-out: Zone of Inhibition (mm. diam.).
Experiment [4] deals with Pseudomonas solanacearum. Put plainly: microbe, parasite or virus in culture. Type of experiment: cell-based. To be noted: Ralstonia solanacearum; for zone of inhibition at 3000 µg/mL: read-out: Zone of Inhibition (mm. diam.).
Experiment [5] has as its system Bacillus subtilis. Put plainly: Disc plate assay, zone of inhibition. Type of experiment: cell-based. To be noted: for zone of inhibition at 3000 µg/mL: read-out: Zone of Inhibition (mm. diam.).
The subject of experiment [6] is Staphylococcus aureus. Put plainly: Disc plate assay, zone of inhibition. It is filed as cell-based. Conditions: for zone of inhibition at 3000 µg/mL: read-out: Zone of Inhibition (mm. diam.).
Experiment [7] relates to Bacillus stearothyermophilus. The experiment can be described thus: Disc plate assay, zone of inhibition. Type of experiment: cell-based. Conditions: for zone of inhibition at 3000 µg/mL: read-out: Zone of Inhibition (mm. diam.).
Experiment [8] relates to Streptococcus epidermidis. Put plainly: Agar dilution method, MIC. It is filed as cell-based. (In general: In agar dilution, organisms are placed on agar that contains the substance at set levels.)
The test system of experiment [9] is Pseudomonas. The experiment can be described thus: Agar dilution method, MIC. Type of experiment: cell-based. To be noted: strains of Pseudomonas.
In experiment [10] the test system is Klebsiella pneumoniae. The experiment can be described thus: Agar dilution method, MIC. It is filed as cell-based.
For experiment [11], the system named is Enterobacter cloacae. Put plainly: Agar dilution method, MIC. Type of experiment: cell-based.
Experiment [12] concerns Trichophyton mentagrophytes. The experiment can be described thus: Disc plate assay, zone of inhibition. Type of experiment: cell-based. On the procedure: as §1, §2, §3
Experiment [13] concerns Haemophilus influenzae. The experiment can be described thus: Agar dilution method, MIC. Type of experiment: cell-based.
For experiment [14], the system named is Streptococcus pneumoniae. Put plainly: Agar dilution method, MIC. Conditions: strain Park. Type of experiment: cell-based.
The subject of experiment [15] is Escherichia coli. The experiment can be described thus: Agar dilution method, MIC. Type of experiment: cell-based.
Experiment [16] has as its system Salmonella gallinarum. The experiment can be described thus: Disc plate assay, zone of inhibition. Type of experiment: cell-based. To be noted: Salmonella enterica, concentration 1 mg./ml. The procedure: as §1, §2
The subject of experiment [17] is Serratia marcescens. The experiment can be described thus: Disc plate assay, zone of inhibition. It is filed as cell-based. To be noted: concentration 1 mg./ml. On the procedure:
as §1, §2

Experiment [18] concerns Saccharomyces postorianus. Put plainly: Disc plate assay, zone of inhibition. Type of experiment: cell-based. To be noted: concentration 1 mg./ml. The procedure: as §1, §2
Experiment [19] has as its system Pseudomonas aeruginosa. The experiment can be described thus: Disc plate assay, zone of inhibition. Type of experiment: cell-based. Conditions: concentration 1 mg./ml. The procedure: as §1, §2
For experiment [20], the system named is Streptococcus pyogenes. Put plainly: Agar dilution method, MIC. It is filed as cell-based. To be noted: strain C203.
Experiment [21] has as its system Proteus vulgaris. The experiment can be described thus: Disc plate assay, zone of inhibition. It is filed as cell-based.
Experiment [22] concerns Salmonella typhi. Put plainly: Agar dilution method, MIC.
For experiment [23], the system named is Proteus. The experiment can be described thus: Agar dilution method, MIC. It is filed as cell-based. Conditions: strains of Proteus.
Experiment [24] deals with Serratia. Put plainly: Agar dilution method, MIC. It is filed as cell-based. Conditions: strains of Serratia.
Experiment [25] relates to Streptococcus sp. D. Put plainly: Agar dilution method, MIC. It is filed as cell-based.
Experiment [26] relates to Staphylococcus aureus. The experiment can be described thus: Agar dilution method, MIC. It is filed as cell-based.
Experiment [27] concerns Enterobacter aerogenes. Put plainly: Agar dilution method, MIC. It is filed as cell-based.

Consider `COC1=NCS[C@@H]2[C@H](NC(=O)Cc3cccs3)C(=O)N2[C@H]1C(=O)O` [Compound B, [2R-(2α,7α,8β)],-3-Methoxy-9-oxo-8-[(2-thienylacetyl)-amino]-6-thia-1,4-diaza[5.2.0]non-3-ene-2-carboxylic acid sodium salt], for which the zone of inhibition at 3000 µg/mL in experiment [1] (Candida albicans, Concentration: 3 mg./ml., read-out: Zone of Inhibition (mm. diam.)) was determined as 13 mm; in experiment [2] (Escherichia coli, Concentration: 3 mg./ml.) it was 25 mm; in [3] (Micrococcus luteus, Concentration: 3 mg./ml.), 25 mm; in [4], 12 mm; in [5] (Bacillus subtilis, Concentration: 3 mg./ml.), 27 mm; in experiment [6] (Staphylococcus aureus, Concentration: 3 mg./ml.), 29 mm. The zone of inhibition at 3000 µg/mL in [7] (Bacillus, Concentration: 3 mg./ml.) was found to be 34 mm.

For the compound `[N-]=[N+]=NC1=C(C(=O)O)N2C(=O)[C@@H](NC(=O)Cc3cccs3)[C@H]2SC1` [7β-(2-Thienylacetamido)-3-azido-3-cephem-4-carboxylic acid], the MIC in [8] (strain 222) was 4 µg/mL (≈ 10.9 µM); in experiment [8] (strain EP11) it was 16 µg/mL (≈ 43.8 µM); in experiment [9], at least 128 µg/mL; in experiment [10], 128 µg/mL (≈ 350 µM); in experiment [10] (strain X26, read-out: MIC), 4 µg/mL (≈ 10.9 µM); in experiment [10] (strain X68, read-out: MIC), 16 µg/mL (≈ 43.8 µM). In addition, the MIC was 128 µg/mL (≈ 350 µM) in experiment [11] (Enterobacter cloacae, strain EB5, read-out: MIC); 128 µg/mL (≈ 350 µM) in experiment [11] (strain 265A); 4 µg/mL (≈ 10.9 µM) in experiment [13] (strain 76); 16 µg/mL (≈ 43.8 µM) in [13] (strain C.L.); 0.25 µg/mL (≈ 0.684 µM) in experiment [14]; 128 µg/mL (≈ 350 µM) in experiment [15]. The MIC in experiment [15] (strain EC14, read-out: MIC) was 16 µg/mL (≈ 43.8 µM); in experiment [15] (strain N10, read-out: MIC) it was 64 µg/mL (≈ 175 µM); in [20] it was 0.5 µg/mL (≈ 1.37 µM); in experiment [22] (Salmonella enterica, TYPHI), 16 µg/mL (≈ 43.8 µM); in experiment [22] (strain 1335), 16 µg/mL (≈ 43.8 µM); in experiment [23], at least 128 µg/mL. For the same compound, the MIC in experiment [24] was at least 128 µg/mL; in [25] (Streptococcus, strain X66, read-out: MIC), 128 µg/mL (≈ 350 µM); in [25] (strain 2041) it was 128 µg/mL (≈ 350 µM); in experiment [26] (strain S13E), 64 µg/mL (≈ 175 µM); in experiment [26] (strain V41, read-out: MIC) it was 64 µg/mL (≈ 175 µM); in experiment [26] (strain X1.1, read-out: MIC), 8 µg/mL (≈ 21.9 µM). Besides, the MIC worked out at 128 µg/mL (≈ 350 µM) in experiment [26] (strain X400, read-out: MIC); 128 µg/mL (≈ 350 µM) in experiment [27] (Klebsiella aerogenes, strain C32, read-out: MIC); 128 µg/mL (≈ 350 µM) in [27] (strain EB17). Besides, the “detectable zone of inhibition” value in [1] (concentration 1 mg./ml.), in experiment [12] (concentration 1 mg./ml.), in [17], in experiment [18] and in [19] was “failed to produce a detectable zone of inhibition” in each case. In addition, the zone of inhibition at 1000 µg/mL in experiment [2] (Escherichia coli, concentration 1 mg./ml.) amounted to 21 mm; in [3] (Micrococcus luteus, concentration 1 mg./ml.), 23 mm; in [4] it was 29 mm; in [5] (Bacillus subtilis, concentration 1 mg./ml.), 30 mm; in [16] it was 19 mm; in experiment [6] (Staphylococcus aureus, concentration 1 mg./ml.), 30 mm. The zone of inhibition at 1000 µg/mL is 20 mm in experiment [7] (Bacillus, concentration 1 mg./ml.) and 25 mm in [21] (Proteus vulgaris, concentration 1 mg./ml.).

As for `COC1S[C@@H]2[C@H](NC(=O)Cc3cccs3)C(=O)N2C(C(=O)[O-])=C1N.[Na+]` (stereo partly drawn) [Compound C, Sodium 7β-[(2-thienylacetyl)amino]-2-methoxy-3-amino-3-cephem-4-carboxylate], the zone of inhibition at 3000 µg/mL turned out to be 30 mm in experiment [2] (Escherichia coli); 24 mm in experiment [3] (Micrococcus luteus); 11 mm in [4]; 30 mm in experiment [5] (Bacillus subtilis); 29 mm in experiment [6] (Staphylococcus aureus); 36 mm in [7] (Bacillus). Besides, the “Zone of Inhibition (mm. diam.)” value in experiment [21] (Concentration: 3 mg./ml.) was “tr”.

In the case of `COC1=N[C@@H](C(=O)[O-])N2C(=O)[C@H](NC(=O)Cc3cccs3)[C@@H]2SC1.[Na+]` [Compound A, [2R-(2α,7α,8β)],-4-Methoxy-9-oxo-8-[(2-thienylacetyl)-amino]-6-thia-1,3-diazabicyclo[5.2.0]non-3-ene-2-carboxylic acid sodium salt], the “Zone of Inhibition (mm. diam.)” value in [12] (Concentration: 3 mg./ml.) was “tr”; in experiment [2] (Concentration: 3 mg./ml.), 12 mm; in experiment [3] (Concentration: 3 mg./ml.) it was 10 mm; in [5] (Concentration: 3 mg./ml.), 15 mm; in experiment [6] (Concentration: 3 mg./ml.) it was 18 mm; in [7] (Concentration: 3 mg./ml.) it was 11 mm.

For orientation: zone of inhibition means the extent of the growth-free halo in a diffusion test.
